pEC50, pKd: −log10 of the molar value. Active and inactive are the calls of the source. The rule behind the calls is not given here.
Experiments:
[1] = Toxicity in human HCT-116 cells expressing FUCCI assessed as cells with healthy nuclei at 1 to 10 uM measured after 24 hrs by Hoechst33342 staining based analysis relative to control; type: cell-based; details: hct-116, 24 h, dose 1-10 µM
[2] = biological target: T1, Serine/threonine-protein kinase 4 (Homo sapiens) (UniProt Q13043); details: dose 10.0 µM
T1 sequence (whole entry): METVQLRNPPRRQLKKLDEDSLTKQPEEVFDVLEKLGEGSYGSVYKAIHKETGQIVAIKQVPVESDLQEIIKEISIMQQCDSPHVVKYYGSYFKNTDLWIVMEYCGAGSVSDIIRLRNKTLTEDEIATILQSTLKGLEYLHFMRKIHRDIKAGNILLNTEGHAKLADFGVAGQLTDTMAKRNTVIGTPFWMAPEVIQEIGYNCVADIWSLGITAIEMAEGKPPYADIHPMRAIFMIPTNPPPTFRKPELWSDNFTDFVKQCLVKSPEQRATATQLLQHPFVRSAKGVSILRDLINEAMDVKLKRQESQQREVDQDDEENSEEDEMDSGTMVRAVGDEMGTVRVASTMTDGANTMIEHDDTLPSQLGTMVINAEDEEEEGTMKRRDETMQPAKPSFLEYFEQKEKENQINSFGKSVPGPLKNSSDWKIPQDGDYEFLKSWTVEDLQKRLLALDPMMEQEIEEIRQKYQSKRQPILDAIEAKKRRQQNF
Description: Binding affinity to recombinant MST1 (unknown origin) kinase domain assessed as thermal stabilization by measuring change in melting temperature at 10 uM by DSF analysis

[3] = biological target: Serine/threonine-protein kinase 24 (Homo sapiens, UniProt Q9Y6E0); assay: Binding affinity to C-terminal full length human MST3 expressed in permeabilized HEK293T cells incubated for 2 hrs by NanoBRET assay; type: cell-based
Chain of Serine/threonine-protein kinase 24 (Q9Y6E0 whole entry): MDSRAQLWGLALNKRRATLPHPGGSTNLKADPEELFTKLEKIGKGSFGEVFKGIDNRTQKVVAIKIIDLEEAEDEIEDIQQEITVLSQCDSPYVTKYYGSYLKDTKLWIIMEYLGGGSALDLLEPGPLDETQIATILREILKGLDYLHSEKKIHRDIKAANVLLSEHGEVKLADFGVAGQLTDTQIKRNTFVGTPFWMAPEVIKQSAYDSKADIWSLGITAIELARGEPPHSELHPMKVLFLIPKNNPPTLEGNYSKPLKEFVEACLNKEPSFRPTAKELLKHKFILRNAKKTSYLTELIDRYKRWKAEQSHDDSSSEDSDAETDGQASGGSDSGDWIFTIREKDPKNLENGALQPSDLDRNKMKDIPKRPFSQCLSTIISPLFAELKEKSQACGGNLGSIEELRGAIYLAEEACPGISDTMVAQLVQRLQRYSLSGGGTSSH

[4] = biological target: T2, Serine/threonine-protein kinase 4 (Homo sapiens, UniProt Q13043); assay: Binding affinity to N-terminal full length human MST1 expressed in intact HEK293T cells incubated for 2 hrs by NanoBRET assay; type: cell-based
T2 sequence (Q13043 whole entry): T1 sequence (whole entry)

[5] = biological target: T3, Serine/threonine-protein kinase 26 (Homo sapiens, UniProt Q9P289); assay: Binding affinity to N-terminal 6His-tagged TEV fused MST4 (unknown origin) expressed in Escherichia coli BL21 (DE3) cells assessed as change in binding enthalpy by ITC analysis
Target sequence in this assay (Q9P289 2-416 limits assumed): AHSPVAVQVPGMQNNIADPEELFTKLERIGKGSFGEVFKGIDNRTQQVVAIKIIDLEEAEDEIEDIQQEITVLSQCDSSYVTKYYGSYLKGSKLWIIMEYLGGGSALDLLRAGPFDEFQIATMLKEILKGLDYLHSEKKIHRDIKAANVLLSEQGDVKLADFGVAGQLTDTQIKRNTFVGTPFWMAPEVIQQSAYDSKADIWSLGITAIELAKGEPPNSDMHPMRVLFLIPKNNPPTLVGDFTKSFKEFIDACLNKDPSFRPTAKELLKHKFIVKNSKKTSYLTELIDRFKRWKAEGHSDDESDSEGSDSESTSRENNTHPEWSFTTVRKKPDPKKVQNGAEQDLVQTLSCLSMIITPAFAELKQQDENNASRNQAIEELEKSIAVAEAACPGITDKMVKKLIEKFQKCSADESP

[6] = Metabolic stability in Sprague-Dawley rat liver microsomes assessed as parent compound remaining at 10 uM preincubated with NADPH for 5 mins followed by microsomal addition and measured upto 60 mins by HPLC analysis; type: ADME, Microsome; details: time < 65 min, read-out: Stability
[7] = biological target: T4, Aurora kinase A (Homo sapiens) (UniProt O14965); assay: Binding affinity to STK6 (unknown origin) assessed as thermal stabilization by measuring change in melting temperature by DSF analysis
T4 sequence (whole entry): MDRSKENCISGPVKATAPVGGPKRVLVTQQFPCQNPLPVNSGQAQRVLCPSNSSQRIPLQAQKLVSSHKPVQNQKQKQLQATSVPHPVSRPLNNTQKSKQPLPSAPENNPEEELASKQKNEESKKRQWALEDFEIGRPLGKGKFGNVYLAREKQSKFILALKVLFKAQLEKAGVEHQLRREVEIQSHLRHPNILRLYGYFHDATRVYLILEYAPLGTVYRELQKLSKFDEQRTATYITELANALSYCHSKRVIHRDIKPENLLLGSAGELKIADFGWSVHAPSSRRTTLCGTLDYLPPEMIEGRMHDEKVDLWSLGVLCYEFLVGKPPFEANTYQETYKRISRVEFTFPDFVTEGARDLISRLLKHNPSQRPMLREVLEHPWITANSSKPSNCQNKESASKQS

[8] = biological target: T3, Serine/threonine-protein kinase 26; assay: Binding affinity to N-terminal 6His-tagged TEV fused MST4 (unknown origin) expressed in Escherichia coli BL21 (DE3) cells assessed as dissociation constant by ITC analysis
Target sequence in this assay (Q9P289 whole entry, the tested form may be a part): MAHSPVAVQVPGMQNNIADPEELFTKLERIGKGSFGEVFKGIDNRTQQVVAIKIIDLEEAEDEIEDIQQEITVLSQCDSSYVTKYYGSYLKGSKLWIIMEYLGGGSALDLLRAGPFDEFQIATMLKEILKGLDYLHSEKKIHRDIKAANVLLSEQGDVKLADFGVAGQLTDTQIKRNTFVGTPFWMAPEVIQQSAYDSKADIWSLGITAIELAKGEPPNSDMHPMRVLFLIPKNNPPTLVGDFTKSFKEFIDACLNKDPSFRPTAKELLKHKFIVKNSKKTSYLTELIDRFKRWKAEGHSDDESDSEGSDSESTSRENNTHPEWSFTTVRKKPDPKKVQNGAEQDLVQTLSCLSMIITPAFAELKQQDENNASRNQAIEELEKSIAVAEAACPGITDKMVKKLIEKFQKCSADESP

[9] = biological target: T3, Serine/threonine-protein kinase 26; details: dose 10.0 µM
Target sequence in this assay (Q9P289 2-416 limits assumed): as the sequence (Q9P289 2-416 limits assumed) above
Description: Binding affinity to recombinant MST4 (unknown origin) kinase domain assessed as thermal stabilization by measuring change in melting temperature at 10 uM by DSF analysis

LIM domain kinase 2 = LIM domain kinase 2 (Homo sapiens, UniProt P53671); assay: Binding affinity to LIMK2 (unknown origin) expressed in permeabilized HEK293T cells incubated for 2 hrs by NanoBRET assay; type: cell-based
Chain of LIM domain kinase 2 (P53671 whole entry, the tested form may be a part): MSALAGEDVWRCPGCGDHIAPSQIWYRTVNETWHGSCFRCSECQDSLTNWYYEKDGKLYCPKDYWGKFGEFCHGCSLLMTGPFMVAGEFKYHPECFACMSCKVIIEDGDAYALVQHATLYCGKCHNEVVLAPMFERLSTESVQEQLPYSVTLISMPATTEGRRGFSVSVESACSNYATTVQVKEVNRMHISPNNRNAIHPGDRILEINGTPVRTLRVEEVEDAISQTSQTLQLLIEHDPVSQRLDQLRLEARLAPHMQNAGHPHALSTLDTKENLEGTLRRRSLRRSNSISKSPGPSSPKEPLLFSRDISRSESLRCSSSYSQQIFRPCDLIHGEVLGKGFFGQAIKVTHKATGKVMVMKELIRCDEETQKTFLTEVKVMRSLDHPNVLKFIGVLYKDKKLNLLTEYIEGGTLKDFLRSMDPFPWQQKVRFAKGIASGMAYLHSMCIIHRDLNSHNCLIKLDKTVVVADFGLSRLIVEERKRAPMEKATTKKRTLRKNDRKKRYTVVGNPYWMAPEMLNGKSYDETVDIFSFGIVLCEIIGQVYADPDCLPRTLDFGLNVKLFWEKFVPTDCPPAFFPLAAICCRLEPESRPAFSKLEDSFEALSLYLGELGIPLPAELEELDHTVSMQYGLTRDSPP

HCT-116 [10] = assay: Cell cycle arrest in human HCT-116 cells expressing […] assessed as S phase cells at 10 uM incubated for 72 hrs by Hoechst33342 staining based analysis relative to control; type: functional
[11] = biological target: T5, Serine/threonine-protein kinase 3 (Homo sapiens) (UniProt Q13188); details: dose 10.0 µM
T5 sequence (whole entry): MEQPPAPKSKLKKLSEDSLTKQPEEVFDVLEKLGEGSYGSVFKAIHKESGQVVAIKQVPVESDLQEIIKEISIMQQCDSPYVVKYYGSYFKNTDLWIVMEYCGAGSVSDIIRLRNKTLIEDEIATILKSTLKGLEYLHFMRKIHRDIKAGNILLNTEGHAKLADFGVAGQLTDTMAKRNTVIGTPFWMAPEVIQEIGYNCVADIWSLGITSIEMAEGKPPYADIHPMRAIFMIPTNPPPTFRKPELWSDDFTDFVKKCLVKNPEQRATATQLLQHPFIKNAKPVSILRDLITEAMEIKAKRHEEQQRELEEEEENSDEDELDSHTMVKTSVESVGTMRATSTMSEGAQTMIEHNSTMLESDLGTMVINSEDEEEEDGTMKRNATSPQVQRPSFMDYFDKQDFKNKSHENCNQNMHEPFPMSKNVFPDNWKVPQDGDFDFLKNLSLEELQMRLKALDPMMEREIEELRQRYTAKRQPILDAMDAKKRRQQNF
Description: Binding affinity to recombinant MST2 (unknown origin) kinase domain assessed as thermal stabilization by measuring change in melting temperature at 10 uM by DSF analysis

[12] = biological target: Glycogen synthase kinase-3 beta (Homo sapiens) (UniProt P49841); assay: Binding affinity to GSK3B (unknown origin) assessed as thermal stabilization by measuring change in melting temperature by DSF analysis
Chain of Glycogen synthase kinase-3 beta (Homo sapiens) (P49841 whole entry, looked up): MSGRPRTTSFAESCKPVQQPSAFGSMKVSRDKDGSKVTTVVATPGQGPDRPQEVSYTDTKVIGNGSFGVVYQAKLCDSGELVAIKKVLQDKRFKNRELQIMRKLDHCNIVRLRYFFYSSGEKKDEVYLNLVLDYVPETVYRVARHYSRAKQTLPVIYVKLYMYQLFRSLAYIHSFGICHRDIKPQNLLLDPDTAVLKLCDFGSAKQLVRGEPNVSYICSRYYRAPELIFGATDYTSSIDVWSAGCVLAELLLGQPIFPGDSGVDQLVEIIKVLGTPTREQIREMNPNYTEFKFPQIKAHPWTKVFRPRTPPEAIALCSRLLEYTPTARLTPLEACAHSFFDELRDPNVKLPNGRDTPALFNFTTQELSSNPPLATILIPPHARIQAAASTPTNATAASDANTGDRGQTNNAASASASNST

HCT-116 [13] = assay: Cell cycle arrest in human HCT-116 cells expressing […] assessed as G1 phase cells at 1 uM incubated for 72 hrs by Hoechst33342 staining based analysis (reference value: 52%); type: functional
[14] = Toxicity in human HCT-116 cells expressing FUCCI assessed as reduction in cell viability at 1 uM measured after 48 hrs by Hoechst33342 staining based analysis; details: hct-116, 48 h

ΔTm [2]: 1.4 °C
pEC50 [3]: 7.10
pEC50 [4]: < 4.30
Activity [5]: Active
remaining at 1 h, 10 µM [6]: 88%
ΔTm [7]: 5.1 °C
pKd [8]: 6.94
ΔTm [9]: 7.4 °C
pEC50 (LIM domain kinase 2): 6.00
ΔTm [11]: 1.1 °C
ΔTm [12]: 5.1 °C
SMILES: O=C1NCCCCCNc2nc(c3ccccc3n2)Nc2cc1[nH]n2
Activity [1]: 80%
Activity (HCT-116 [10]): 27%
Activity (HCT-116 [13]): 57%
Activity [14]: Non-Toxic

Source: ChEMBL document CHEMBL5532666 (J Med Chem, 2024)
